Reference: patent publication US11261179B2, “Small molecules” (University of Dundee, priority 2017, dated 2022)
Values joined by “and” are separate entries in the source; they are usually repeats but may differ in a detail not shown here. Equal values may be shown once.

Biological target: pVHL19 (VCB complex: VHL with Elongin B and Elongin C) (Homo sapiens, UniProt P40337)
Assay: ITC titration against VCB, short VHL isoform
Type: binding
Procedure: Titrations were performed on an ITC200 micro-calorimeter (GE Healthcare). […] The final DMSO concentration was 0.15% v/v. VBC protein experiments were carried out in a buffer containing 20 mM Bis-tris propane, 150 mM NaCl, 1 mM TCEP, 0.15% v/v DMSO, pH 7.4. The titrations consisted of 19 injections of 2 μL compounds solution (150 μM, in the syringe) at a rate of 2 s/μL at 120 s time intervals into the VCB protein solution (20 μM, in the cell). An initial injection of compound solution (0.4 μL) was made and discarded during data analysis. All experiments were performed at 25° C., whilst stirring the syringe at 600 rpm. The data were fitted to a single binding site model to obtain the stoichiometry n, the dissociation constant Kd and the enthalpy of binding ΔH using the Microcal LLC ITC200 Origin software provided by the manufacturer.

Sequence of pVHL19 (VCB complex: VHL with Elongin B and Elongin C) (P40337 54-213): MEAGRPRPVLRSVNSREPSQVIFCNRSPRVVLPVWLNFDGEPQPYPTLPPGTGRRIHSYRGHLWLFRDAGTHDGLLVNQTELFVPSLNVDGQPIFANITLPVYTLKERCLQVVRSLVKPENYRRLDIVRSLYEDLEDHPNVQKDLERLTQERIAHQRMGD
Sequence of pVHL19 (VCB complex: VHL with Elongin B and Elongin C) (Q15370 1-104 partner limits assumed): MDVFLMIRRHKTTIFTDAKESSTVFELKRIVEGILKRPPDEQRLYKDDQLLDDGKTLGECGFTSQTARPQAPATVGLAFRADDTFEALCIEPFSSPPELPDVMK
Sequence of pVHL19 (VCB complex: VHL with Elongin B and Elongin C) (Q15369 17-112 partner limits assumed): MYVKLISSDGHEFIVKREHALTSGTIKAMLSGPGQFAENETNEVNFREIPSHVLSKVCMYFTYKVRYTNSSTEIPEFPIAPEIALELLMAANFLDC

`Cc1ncsc1-c1ccc(CNC(=O)[C@@H]2C[C@@H](O)CN2C(=O)[C@@H](NC(=O)COCCOCCOCCOCCOCCOCC(=O)N[C@H](C(=O)N2C[C@H](O)C[C@H]2C(=O)NCc2ccc(-c3scnc3C)cc2)C(C)(C)C)C(C)(C)C)cc1` [CM11, N^1,N^20-bis((S)-1-((2S,4R)-4-hydroxy-2-((4-(4-methylthiazol-5-yl)benzyl)carbamoyl)pyrrolidin-1-yl)-3,3-dimethyl-1-oxobutan-2-yl)-3,6,9,12,15,18-hexaoxaicosanediamide] was tested, and the “apparent binding enthalpy ΔH” value (ITC against VCB) was -12.3 kcal/mol, the “avidity (cooperativity α) compared to VH032” value (ITC against VCB) was over 18 fold and the “entropic term −TΔS” value (ITC against VCB) was 1.4 kcal/mol. For the same molecule, the Kd (ITC, pVHL19) was 0.011 ± 0.002 µM, the ΔG (ITC, pVHL19) was -10.9 ± 0.1 kcal/mol and the ΔH (ITC, pVHL19) was -12.3 ± 0.7 kcal/mol. For the same molecule, the “α (cooperativity/avidity)” value (ITC, pVHL19) was 18, the “−TΔS” value (ITC, pVHL19) was 1.4 ± 0.8 kcal/mol and the “n (stoichiometry)” value (ITC, pVHL19, 25° C.) was 0.6 and 0.6 ± 0.01.
